Reference: the OligoGym collection
HELM strings list units from the 5' end as sugar, base in round brackets, then linkage (d deoxyribose, r ribose, m 2'-O-methyl, p phosphodiester). Strings are as the collection lists them, not checked against the first reports. ss, as = sense and antisense strand; [s4r] = 4'-thioribose; [fl2r] = 2'-fluoro

Details: siRNA
Further: test system not given here.

Substance	target mRNA knockdown
RNA1{r(A)p.r(A)p.r(A)p.r(C)p.r(A)p.r(U)p.r(G)p.r(C)p.r(A)p.r(G)p.r(A)p.r(A)p.r(A)p.r(A)p.r(U)p.r(G)p.r(C)p.r(U)p.r(G)p.r(T)p.r(T)}|RNA2{r(C)p.r(A)p.r(G)p.r(C)p.r(A)p.r(U)p.r(U)p.r(U)p.r(U)p.r(C)p.r(U)p.r(G)p.r(C)p.r(A)p.r(U)p.r(G)p.r(U)p.[s4r](U)p.[s4r](U)p.r(T)p.r(T)}$$$RNA1{StrandType:ss}|RNA2{StrandType:as}$	57.2%
RNA1{r(A)p.r(A)p.r(A)p.r(C)p.r(C)p.r(C)p.r(C)p.[fl2r](U)p.r(A)p.r(G)p.r(A)p.r(G)p.r(G)p.[fl2r](G)p.r(C)p.r(A)p.r(A)p.r(G)p.r(U)p.r(T)p.r(T)}|RNA2{r(A)p.r(C)p.r(U)p.[fl2r](U)p.r(G)p.r(C)p.r(C)p.r(C)p.r(U)p.r(C)p.[fl2r](U)p.r(A)p.r(G)p.r(G)p.r(G)p.r(G)p.r(U)p.r(U)p.r(U)p.r(T)p.r(T)}$$$RNA1{StrandType:ss}|RNA2{StrandType:as}$	82%
RNA1{r(A)p.r(A)p.r(A)p.r(C)p.r(C)p.r(C)p.r(C)p.[fl2r](U)p.r(A)p.r(G)p.r(A)p.r(G)p.r(G)p.r(G)p.[fl2r](C)p.r(A)p.r(A)p.r(G)p.r(U)p.r(T)p.r(T)}|RNA2{r(A)p.r(C)p.r(U)p.r(U)p.r(G)p.r(C)p.r(C)p.r(C)p.r(U)p.r(C)p.r(U)p.r(A)p.r(G)p.r(G)p.r(G)p.r(G)p.r(U)p.r(U)p.r(U)p.r(T)p.r(T)}$$$RNA1{StrandType:ss}|RNA2{StrandType:as}$	83%
RNA1{r(A)p.r(A)p.r(A)p.r(C)p.r(C)p.r(C)p.r(C)p.m(U)p.r(A)p.r(G)p.r(A)p.r(G)p.r(G)p.r(G)p.m(C)p.r(A)p.r(A)p.r(G)p.r(U)p.r(T)p.r(T)}|RNA2{r(A)p.r(C)p.r(U)p.m(U)p.r(G)p.r(C)p.r(C)p.r(C)p.r(U)p.r(C)p.m(U)p.r(A)p.r(G)p.r(G)p.r(G)p.r(G)p.r(U)p.r(U)p.r(U)p.r(T)p.r(T)}$$$RNA1{StrandType:ss}|RNA2{StrandType:as}$	78%
RNA1{r(A)p.r(A)p.r(A)p.r(C)p.r(C)p.r(C)p.r(C)p.m(U)p.r(A)p.r(G)p.r(A)p.r(G)p.r(G)p.r(G)p.r(C)p.r(A)p.r(A)p.r(G)p.r(U)p.r(T)p.r(T)}|RNA2{r(A)p.r(C)p.r(U)p.r(U)p.r(G)p.r(C)p.r(C)p.r(C)p.r(U)p.r(C)p.m(U)p.r(A)p.r(G)p.r(G)p.r(G)p.r(G)p.r(U)p.r(U)p.r(U)p.r(T)p.r(T)}$$$RNA1{StrandType:ss}|RNA2{StrandType:as}$	75%
RNA1{r(A)p.r(A)p.r(A)p.r(C)p.r(C)p.r(C)p.r(C)p.r(U)p.r(A)p.r(G)p.r(A)p.r(G)p.r(G)p.r(G)p.r(C)p.r(A)p.r(A)p.r(G)p.r(U)p.r(T)p.r(T)}|RNA2{[fl2r](A)p.r(C)p.[fl2r](U)p.r(U)p.[fl2r](G)p.r(C)p.[fl2r](C)p.r(C)p.[fl2r](U)p.r(C)p.[fl2r](U)p.r(A)p.[fl2r](G)p.r(G)p.[fl2r](G)p.r(G)p.[fl2r](U)p.r(U)p.[fl2r](U)p.r(T)p.r(T)}$$$RNA1{StrandType:ss}|RNA2{StrandType:as}$	37%
RNA1{r(A)p.r(A)p.r(A)p.r(C)p.r(C)p.r(U)p.m(C)p.r(A)p.r(G)p.r(C)p.r(C)p.r(C)p.m(U)p.r(A)p.r(A)p.r(C)p.r(G)p.r(G)p.r(U)p.r(T)p.r(T)}|RNA2{r(A)p.r(C)p.r(C)p.r(G)p.r(U)p.m(U)p.r(A)p.r(G)p.r(G)p.r(G)p.r(C)p.m(U)p.r(G)p.r(A)p.r(G)p.r(G)p.r(U)p.r(U)p.r(U)p.r(T)p.r(T)}$$$RNA1{StrandType:ss}|RNA2{StrandType:as}$	70%
RNA1{r(A)p.r(A)p.r(A)p.r(C)p.r(C)p.r(U)p.r(C)p.m(A)p.r(G)p.r(C)p.r(C)p.r(C)p.r(U)p.r(A)p.r(A)p.r(C)p.r(G)p.r(G)p.r(U)p.r(T)p.r(T)}|RNA2{r(A)p.r(C)p.r(C)p.r(G)p.r(U)p.m(U)p.r(A)p.r(G)p.r(G)p.r(G)p.r(C)p.r(U)p.r(G)p.r(A)p.r(G)p.r(G)p.r(U)p.r(U)p.r(U)p.r(T)p.r(T)}$$$RNA1{StrandType:ss}|RNA2{StrandType:as}$	70%
RNA1{r(A)p.r(A)p.r(A)p.r(C)p.r(C)p.r(U)p.r(C)p.r(A)p.r(G)p.r(C)p.r(C)p.r(C)p.m(U)p.m(A)p.r(A)p.r(C)p.r(G)p.r(G)p.r(U)p.r(T)p.r(T)}|RNA2{r(A)p.r(C)p.r(C)p.r(G)p.r(U)p.m(U)p.r(A)p.r(G)p.r(G)p.r(G)p.r(C)p.r(U)p.r(G)p.r(A)p.r(G)p.r(G)p.r(U)p.r(U)p.r(U)p.r(T)p.r(T)}$$$RNA1{StrandType:ss}|RNA2{StrandType:as}$	69%
RNA1{r(A)p.r(A)p.r(A)p.r(C)p.r(G)p.m(U)p.r(G)p.r(A)p.r(C)p.r(U)p.r(U)p.m(U)p.r(G)p.r(G)p.r(U)p.r(U)p.r(C)p.m(C)p.r(U)p.r(T)p.r(T)}|RNA2{r(A)p.r(G)p.r(G)p.r(A)p.r(A)p.r(C)p.m(C)p.r(A)p.r(A)p.r(A)p.r(G)p.r(U)p.m(C)p.r(A)p.r(C)p.r(G)p.r(U)p.r(U)p.r(U)p.r(T)p.r(T)}$$$RNA1{StrandType:ss}|RNA2{StrandType:as}$	82%
RNA1{r(A)p.r(A)p.r(A)p.r(C)p.r(G)p.r(A)p.m(G)p.r(A)p.r(G)p.r(A)p.r(G)p.r(C)p.r(C)p.m(C)p.r(A)p.r(C)p.r(C)p.r(U)p.r(U)p.r(T)p.r(T)}|RNA2{r(A)p.r(A)p.r(G)p.r(G)p.m(U)p.m(G)p.r(G)p.r(G)p.r(C)p.r(U)p.r(C)p.r(U)p.r(C)p.r(U)p.r(C)p.r(G)p.r(U)p.r(U)p.r(U)p.r(T)p.r(T)}$$$RNA1{StrandType:ss}|RNA2{StrandType:as}$	56%
RNA1{r(A)p.r(A)p.r(A)p.r(C)p.r(G)p.r(A)p.r(G)p.r(A)p.r(G)p.r(A)p.r(G)p.r(C)p.r(C)p.r(C)p.r(A)p.r(C)p.r(C)p.r(U)p.r(U)p.r(T)p.r(T)}|RNA2{r(A)p.r(A)p.r(G)p.r(G)p.m(U)p.r(G)p.r(G)p.r(G)p.r(C)p.r(U)p.r(C)p.r(U)p.r(C)p.r(U)p.r(C)p.r(G)p.r(U)p.r(U)p.r(U)p.r(T)p.r(T)}$$$RNA1{StrandType:ss}|RNA2{StrandType:as}$	57%
RNA1{r(A)p.r(A)p.r(A)p.r(C)p.r(G)p.r(U)p.r(G)p.r(A)p.r(C)p.r(U)p.r(U)p.m(U)p.r(G)p.r(G)p.r(U)p.r(U)p.r(C)p.r(C)p.r(U)p.r(T)p.r(T)}|RNA2{r(A)p.r(G)p.r(G)p.r(A)p.r(A)p.r(C)p.r(C)p.r(A)p.r(A)p.r(A)p.r(G)p.r(U)p.m(C)p.r(A)p.r(C)p.r(G)p.r(U)p.r(U)p.r(U)p.r(T)p.r(T)}$$$RNA1{StrandType:ss}|RNA2{StrandType:as}$	83%
RNA1{r(A)p.r(A)p.r(A)p.r(G)p.r(C)p.r(G)p.r(G)p.m(U)p.m(G)p.r(G)p.r(A)p.r(U)p.m(C)p.r(A)p.r(G)p.r(C)p.r(U)p.r(C)p.r(U)p.r(T)p.r(T)}|RNA2{r(A)p.r(G)p.r(A)p.r(G)p.r(C)p.m(U)p.r(G)p.r(A)p.r(U)p.r(C)p.m(C)p.m(A)p.r(C)p.r(C)p.r(G)p.r(C)p.r(U)p.r(U)p.r(U)p.r(T)p.r(T)}$$$RNA1{StrandType:ss}|RNA2{StrandType:as}$	63%
RNA1{r(A)p.r(A)p.r(A)p.r(G)p.r(C)p.r(G)p.r(G)p.r(U)p.r(G)p.r(G)p.r(A)p.r(U)p.r(C)p.r(A)p.r(G)p.r(C)p.r(U)p.r(C)p.r(U)p.r(T)p.r(T)}|RNA2{r(A)p.r(G)p.r(A)p.r(G)p.r(C)p.m(U)p.r(G)p.r(A)p.r(U)p.r(C)p.m(C)p.r(A)p.r(C)p.r(C)p.r(G)p.r(C)p.r(U)p.r(U)p.r(U)p.r(T)p.r(T)}$$$RNA1{StrandType:ss}|RNA2{StrandType:as}$	67%
RNA1{r(A)p.r(A)p.r(A)p.r(G)p.r(G)p.r(G)p.r(G)p.r(A)p.r(G)p.r(U)p.m(U)p.r(G)p.r(C)p.m(U)p.r(G)p.r(G)p.r(A)p.r(A)p.r(G)p.r(T)p.r(T)}|RNA2{r(C)p.r(U)p.r(U)p.r(C)p.m(C)p.r(A)p.r(G)p.m(C)p.r(A)p.r(A)p.r(C)p.r(U)p.r(C)p.r(C)p.r(C)p.r(C)p.r(U)p.r(U)p.r(U)p.r(T)p.r(T)}$$$RNA1{StrandType:ss}|RNA2{StrandType:as}$	74%
RNA1{r(A)p.r(A)p.r(A)p.r(G)p.r(G)p.r(G)p.r(G)p.r(A)p.r(G)p.r(U)p.m(U)p.r(G)p.r(C)p.m(U)p.r(G)p.r(G)p.r(A)p.r(A)p.r(G)p.r(T)p.r(T)}|RNA2{r(C)p.r(U)p.r(U)p.r(C)p.m(C)p.r(A)p.r(G)p.r(C)p.r(A)p.r(A)p.r(C)p.r(U)p.r(C)p.r(C)p.r(C)p.r(C)p.r(U)p.r(U)p.r(U)p.r(T)p.r(T)}$$$RNA1{StrandType:ss}|RNA2{StrandType:as}$	76%
RNA1{r(A)p.r(A)p.r(C)p.r(A)p.r(G)p.r(C)p.r(C)p.r(U)p.r(U)p.r(A)p.r(C)p.r(C)p.r(C)p.r(C)p.r(G)p.r(A)p.r(U)p.r(U)p.r(C)p.r(T)p.r(T)}|RNA2{r(G)p.r(A)p.r(A)p.r(U)p.r(C)p.r(G)p.r(G)p.r(G)p.r(G)p.m(U)p.r(A)p.r(A)p.r(G)p.r(G)p.r(C)p.r(U)p.r(G)p.r(U)p.r(U)p.r(T)p.r(T)}$$$RNA1{StrandType:ss}|RNA2{StrandType:as}$	69%
RNA1{r(A)p.r(A)p.r(C)p.r(A)p.r(G)p.r(U)p.r(C)p.r(C)p.r(U)p.m(U)p.r(A)p.r(G)p.r(C)p.m(U)p.r(A)p.r(C)p.r(G)p.r(C)p.m(U)p.r(T)p.r(T)}|RNA2{r(A)p.r(G)p.r(C)p.r(G)p.m(U)p.r(A)p.r(G)p.r(C)p.r(U)p.r(A)p.r(A)p.r(G)p.r(G)p.r(A)p.r(C)p.r(U)p.r(G)p.r(U)p.r(U)p.r(T)p.r(T)}$$$RNA1{StrandType:ss}|RNA2{StrandType:as}$	82%
RNA1{r(A)p.r(A)p.r(C)p.r(C)p.[fl2r](C)p.r(A)p.r(C)p.r(C)p.r(A)p.[fl2r](C)p.r(A)p.r(G)p.r(C)p.[fl2r](U)p.r(A)p.r(G)p.r(A)p.r(A)p.r(C)p.r(U)p.r(U)}|RNA2{r(G)p.r(U)p.r(U)p.r(C)p.[fl2r](U)p.r(A)p.r(G)p.r(C)p.[fl2r](U)p.r(G)p.[fl2r](U)p.r(G)p.r(G)p.[fl2r](U)p.r(G)p.r(G)p.r(G)p.r(U)p.r(U)p.r(U)p.r(U)}$$$RNA1{StrandType:ss}|RNA2{StrandType:as}$	79%
